Reference: patent US4766110A, “Novel complex amido and imido derivatives of carboxyalkyl peptides” (priority 1986, dated 1988)
“Also recorded” adds a separate entry of the source.

How the values were obtained:
[1] = biological target: T1, human plasma angiotensin converting enzyme (Homo sapiens, UniProt P12821); test: In vitro assay of inhibition of angiotensin converting enzyme; assay type: biochemical; conditions: [3H]benzoyl-Gly-His-Leu 80 nM, pH 8.0, 37° C., 15 minutes, I50 approximates Ki
T1 construct: partially-purified human plasma angiotensin converting enzyme; from tissue; host or cells: human plasma
Method: Compounds of this invention were assayed through the following protocol: 25 microliters of buffer (0.05M Hepes buffer, pH 8.0, plus 0.1M NaCl and 0.75M Na2 SO4) or 25 microliters of an inhibitor in buffer was added to the bottom of a 7 ml liquid scintillation vial. To this was added 100 microliters of buffered substrate [S], [^3 H]benzoyl-Gly-His-Leu, 80 nM (25 Ci/mmole). The reaction was started by adding 100 microliters of partially-purified human plasma angiotensin converting enzyme, or 100 microliters of buffer alone. The concentration of enzyme [E] used was that required to hydrolyze 8-12% of substrate when incubated at 37° C. for 15 minutes. The scintillation vials and their contents were incubated at 37° C. for 15 minutes, and the reactions were stopped by adding 200 microliters of 0.5M HCl to each vial. The radioactive reaction product, [^3 H]benzoyl-Gly(hippuric acid), was separated from unhydrolyzed substrate by adding and mixing (by inversion) 3 ml of Ventrex Cocktail No. 1 (Ventrex Laboratories, Inc., Portland, Maine), a fluid disclosed in copending U.S. patent application Ser. No. 184,653, filed Sept. 6, 1980. Extractable ^3 H was quantified by liquid scintillation counting. Substrate, in c.p.m., was quantified by scintillation counting of a vial containing 100 μl of buffered substrate in 5 ml of RIAfluor (New England Nuclear). The reaction mixture containing al constituents except for inhibitor was termed the control (C). The reaction mixture lacking enzyme and inhibitor was called the blank (B). Reaction mixtures containing inhibitor (varied over the range of 10^-4 -10^-12 M) were called the test (T) reactions. Under the conditions of this assay, the reaction obeys first order enzyme kinetics, thus the concentration of inhibitor required to inhibit the rate of hydrolysis by half (I50) approximates the Ki value. The results were estimated by use of the formula: [formula] where C=control c.p.m.; B=blank c.p.m.; [S]=substrate c.p.m. The factor 100 converts fractional substrate utilization into percentage utilization,and 1/15 minute corrects to percentage substrate utilization/minute. Thus, [E] is enzyme activity in percentage substrate utilization/minute. By substituting T for C, hydrolysis rates are computed for the test reaction mixtures. By comparing a given test rate against the control rate, the degree of inhibition can be computed.

[2] = tested on: mean arterial blood pressure response to angiotensin I; test: Intravenous effectiveness: blood pressure response to angiotensin I in anesthetized rats; assay type: in vivo; conditions: for Blood Pressure Response to 400 ng/kg of Angiotensin I: rat, 0.5 μmole/kg IV
Method: Rats (190-290 g body weight) were fasted overnight and then anesthetized with intraperitoneal pentobarbital, 50-60 mg/kg. Tracheostomy was performed and the animals were ventilated mechanically. A cannula was inserted into a femoral vein for injection of angiotensin I, and a second cannula was inserted into a common carotid artery for direct measurement of arterial blood pressure. Heparin, 1,000 units, was injected via the femoral vein to prevent coagulation. Blood pressure was measured with a pressure transducer connected to a polygraph. The rats were injected with […] of angiotensin I in 20 μl of 0.9 g % NaCl, an amount of angiotensin I sufficient to raise mean arterial blood pressure by approximately 48 mm Hg.
After the responsiveness of a given rat to angiotensin I was established, the named compound at 0.5 μmole/kg (drug dissolved in 15 microliters of 0.9% NaCl) was given intravenously. At time intervals, the effects of 400 ng/kg of angiotensin I on mean arterial blood pressure were tested. Results are shown below:
Experiments were carried out using rats according to Example 30.

[3] = Loss of activity of aqueous SQ14225 solution on standing; assay type: physicochemical; conditions: 1 mg per ml, pH of about 8, ambient conditions
[4] = cited from earlier work

T1 sequence (P12821 30-1232 limits assumed): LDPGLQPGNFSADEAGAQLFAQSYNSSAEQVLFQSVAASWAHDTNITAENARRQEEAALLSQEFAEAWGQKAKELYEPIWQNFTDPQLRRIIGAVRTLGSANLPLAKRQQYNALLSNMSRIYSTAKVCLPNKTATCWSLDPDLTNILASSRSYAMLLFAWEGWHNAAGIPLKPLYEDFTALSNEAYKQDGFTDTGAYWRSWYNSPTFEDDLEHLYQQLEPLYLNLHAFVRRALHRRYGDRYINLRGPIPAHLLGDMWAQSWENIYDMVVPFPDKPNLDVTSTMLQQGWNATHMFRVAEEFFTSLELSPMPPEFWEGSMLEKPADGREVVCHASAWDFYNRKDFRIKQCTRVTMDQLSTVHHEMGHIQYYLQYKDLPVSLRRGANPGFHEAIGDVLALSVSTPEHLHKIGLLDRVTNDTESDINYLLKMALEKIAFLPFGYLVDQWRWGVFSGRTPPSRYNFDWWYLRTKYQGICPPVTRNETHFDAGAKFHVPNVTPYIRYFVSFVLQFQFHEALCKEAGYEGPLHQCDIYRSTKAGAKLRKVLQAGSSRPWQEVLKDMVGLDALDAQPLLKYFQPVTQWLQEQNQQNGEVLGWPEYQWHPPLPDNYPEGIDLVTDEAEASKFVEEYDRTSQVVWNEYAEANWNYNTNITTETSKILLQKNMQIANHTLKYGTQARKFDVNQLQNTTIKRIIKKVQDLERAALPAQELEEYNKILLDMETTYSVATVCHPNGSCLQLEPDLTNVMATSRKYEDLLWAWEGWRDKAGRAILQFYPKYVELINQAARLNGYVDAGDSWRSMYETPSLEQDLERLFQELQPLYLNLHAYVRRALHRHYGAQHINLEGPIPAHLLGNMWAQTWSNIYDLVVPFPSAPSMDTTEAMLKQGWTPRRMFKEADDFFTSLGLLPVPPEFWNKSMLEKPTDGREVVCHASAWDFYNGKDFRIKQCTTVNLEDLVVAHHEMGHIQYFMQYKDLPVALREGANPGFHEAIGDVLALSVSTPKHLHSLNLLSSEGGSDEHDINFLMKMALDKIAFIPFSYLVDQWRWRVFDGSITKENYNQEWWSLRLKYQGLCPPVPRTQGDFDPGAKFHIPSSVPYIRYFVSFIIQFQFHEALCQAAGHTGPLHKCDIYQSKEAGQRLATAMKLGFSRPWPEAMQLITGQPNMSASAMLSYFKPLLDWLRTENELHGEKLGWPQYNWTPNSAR

CC(N[C@@H](CC(=O)N1CCCC1)C(=O)O)C(=O)N1CCC[C@H]1C(=O)O (stereo partly drawn) [Example 28, N-[L-1-carboxy-2-(carbopyrrolide)ethyl]-Alanyl-L-Proline]
IC50 [1]: 140 nM
IC50 ([1]; listed as N-[L-1-carboxy-2-(carbopyrrolide)ethyl]-D,L-Ala-Pro): ~100 nM

CC(N[C@@H](CCC(=O)Nc1ccccc1)C(=O)O)C(=O)N1CCC[C@H]1C(=O)O (stereo partly drawn) [Example 26, N-[L-1-carboxy-3-(carbo-anilide)propyl]-Alanyl-L-Proline]
IC50 [1]: 5.2 nM
IC50 ([1]; listed as N-[L-1-carboxy-3-(carboanilide)propyl]-D,L-Ala-L-Pro): ~1 nM
Blood Pressure Response to 400 ng/kg of Angiotensin I ([2]; 5 min after administration): 37 % of Control
Blood Pressure Response to 400 ng/kg of Angiotensin I ([2]; 10 min after administration): 37 % of Control
Blood Pressure Response to 400 ng/kg of Angiotensin I ([2]; 15 min after administration): 40 % of Control
Blood Pressure Response to 400 ng/kg of Angiotensin I ([2]; 20 min after administration): 40 % of Control
Blood Pressure Response to 400 ng/kg of Angiotensin I ([2]; 25 min after administration): 40 % of Control
Blood Pressure Response to 400 ng/kg of Angiotensin I ([2]; 30 min after administration): 35 % of Control
Blood Pressure Response to 400 ng/kg of Angiotensin I ([2]; 40 min after administration): 35 % of Control
Blood Pressure Response to 400 ng/kg of Angiotensin I ([2]; 50 min after administration): 46 % of Control
Blood Pressure Response to 400 ng/kg of Angiotensin I ([2]; 60 min after administration): 46 % of Control
Blood Pressure Response to 400 ng/kg of Angiotensin I ([2]; 70 min after administration): 48 % of Control
Blood Pressure Response to 400 ng/kg of Angiotensin I ([2]; 80 min after administration): 52 % of Control
Blood Pressure Response to 400 ng/kg of Angiotensin I ([2]; 90 min after administration): 54 % of Control
Blood Pressure Response to 400 ng/kg of Angiotensin I ([2]; 102 min after administration): 62.5 % of Control
Blood Pressure Response to 400 ng/kg of Angiotensin I ([2]; +1 min after administration): 42 % of Control

CC(N[C@@H](CCC(=O)Nc1ccc(I)cc1)C(=O)O)C(=O)N1CCC[C@H]1C(=O)O (stereo partly drawn) [Example 27, N-[L-1-carboxy-3-(carbo-4-iodo-anilide)propyl]-Alanyl-L-Proline]
IC50 [1]: 0.23 nM
IC50 ([1]; listed as N-[L-1-carboxy-3-(carbo-4-iodoanilide)propyl]-D,L-Ala-L-Pro): ~1 nM
increase in intravenous effectiveness on removal of iodine ([2]; de-iodo compound versus the 4-iodoanilide): three-fold
Blood Pressure Response to 400 ng/kg of Angiotensin I ([2]; 5 min after administration): 42 % of Control
Blood Pressure Response to 400 ng/kg of Angiotensin I ([2]; 10 min after administration): 46 % of Control
Blood Pressure Response to 400 ng/kg of Angiotensin I ([2]; 15 min after administration): 52 % of Control
Blood Pressure Response to 400 ng/kg of Angiotensin I ([2]; 20 min after administration): 60 % of Control
Blood Pressure Response to 400 ng/kg of Angiotensin I ([2]; 25 min after administration): 67 % of Control
Blood Pressure Response to 400 ng/kg of Angiotensin I ([2]; 30 min after administration): 71 % of Control
Blood Pressure Response to 400 ng/kg of Angiotensin I ([2]; 35 min after administration): 71 % of Control
Blood Pressure Response to 400 ng/kg of Angiotensin I ([2]; 50 min after administration): 83 % of Control
Blood Pressure Response to 400 ng/kg of Angiotensin I ([2]; 60 min after administration): 92 % of Control
Blood Pressure Response to 400 ng/kg of Angiotensin I ([2]; 70 min after administration): 100 % of Control
Blood Pressure Response to 400 ng/kg of Angiotensin I ([2]; 80 min after administration): 104 % of Control
Blood Pressure Response to 400 ng/kg of Angiotensin I ([2]; +1 min after administration): 33 % of Control

C[C@H](CS)C(=O)N1CCC[C@H]1C(=O)O [SQ14225, D-3-mercapto-2-methylpropanoyl-L-proline]
activity of fresh aqueous solution on standing [3]: becomes substantially less active upon standing for as little as 30 minutes
renal biopsy findings ([4]; 13 patients treated with SQ14225, Hoorntje et al.): evidence of immune complex deposition along the glomerular basement membranes
adverse effects in man ([4]; patients, Gavras et al.): occasional allergic reactions; also recorded: fevers and rashes
